Results reported in ChEMBL document CHEMBL1147510 (Bioorg Med Chem Lett, 2004).
Activity calls are given as the source filed them. The rule behind the calls is not given here.

Experiments:
[1] = target: T1, Neuronal acetylcholine receptor; alpha3/beta4 (Homo sapiens, UniProt P30926+P32297); assay: Responses to that evoked by Nicotinic acetylcholine receptor alpha3-beta4 expressed in xenopus oocytes up to 1 mM; format: cell-based; conditions: Oocyte
[2] = target: T2, Neuronal acetylcholine receptor; alpha3/beta2 (Homo sapiens) (UniProt P17787+P32297); assay: Responses to that evoked by Nicotinic acetylcholine receptor alpha3-beta2 expressed in xenopus oocytes up to 1 mM; format: cell-based; conditions: Oocyte
[3] = test system: Oocyte; assay: Antagonism of ACh response at Nicotinic acetylcholine receptor alpha-3-beta-2-alpha-5 receptor expressed in xenopus oocytes up to 1 mM; format: functional, cell-based; conditions: Homo sapiens
[4] = target: T3, Neuronal acetylcholine receptor; alpha4/beta2 (Homo sapiens, UniProt P17787+P43681); assay: Responses to that evoked by ACh at human Nicotinic acetylcholine receptor alpha4-beta2 expressed in xenopus oocytes up to 1 mM; format: cell-based; conditions: Oocyte
T3 sequence (P17787 whole entry): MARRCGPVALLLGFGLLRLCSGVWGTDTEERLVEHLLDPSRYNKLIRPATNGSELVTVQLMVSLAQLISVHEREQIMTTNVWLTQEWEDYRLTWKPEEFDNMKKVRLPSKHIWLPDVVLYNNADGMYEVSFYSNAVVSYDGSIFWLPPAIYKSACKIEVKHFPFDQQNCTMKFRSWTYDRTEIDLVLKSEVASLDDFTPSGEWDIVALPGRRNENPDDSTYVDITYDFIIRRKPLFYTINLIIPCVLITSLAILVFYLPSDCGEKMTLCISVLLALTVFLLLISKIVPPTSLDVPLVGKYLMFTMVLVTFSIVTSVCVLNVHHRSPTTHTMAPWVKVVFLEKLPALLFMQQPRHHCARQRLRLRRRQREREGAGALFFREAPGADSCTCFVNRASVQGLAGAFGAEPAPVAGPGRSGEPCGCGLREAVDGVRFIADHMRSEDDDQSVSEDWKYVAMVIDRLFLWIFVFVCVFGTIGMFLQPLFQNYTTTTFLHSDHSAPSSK
T3 sequence (P43681 whole entry): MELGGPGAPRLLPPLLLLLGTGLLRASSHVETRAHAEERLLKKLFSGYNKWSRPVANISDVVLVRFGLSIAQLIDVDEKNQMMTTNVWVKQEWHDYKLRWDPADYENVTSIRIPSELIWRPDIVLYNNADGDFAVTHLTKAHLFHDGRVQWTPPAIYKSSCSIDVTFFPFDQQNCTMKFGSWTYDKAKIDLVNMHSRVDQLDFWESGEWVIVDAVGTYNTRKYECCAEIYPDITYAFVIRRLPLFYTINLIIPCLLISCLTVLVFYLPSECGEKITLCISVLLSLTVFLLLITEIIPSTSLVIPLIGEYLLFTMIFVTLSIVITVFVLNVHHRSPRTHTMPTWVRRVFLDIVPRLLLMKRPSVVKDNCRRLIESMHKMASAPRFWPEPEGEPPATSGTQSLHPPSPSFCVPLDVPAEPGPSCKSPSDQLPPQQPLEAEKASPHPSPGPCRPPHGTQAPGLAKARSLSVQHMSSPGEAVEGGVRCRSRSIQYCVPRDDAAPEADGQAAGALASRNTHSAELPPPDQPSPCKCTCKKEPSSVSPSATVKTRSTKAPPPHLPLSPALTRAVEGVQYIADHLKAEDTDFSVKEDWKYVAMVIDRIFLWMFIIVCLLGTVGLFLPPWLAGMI

[5] = target: T3, Neuronal acetylcholine receptor; alpha4/beta2; assay: Antagonism of ACh response at Nicotinic acetylcholine receptor alpha4-beta2 expressed in xenopus oocytes; format: functional, cell-based, Oocyte
[6] = target: T4, 5-hydroxytryptamine receptor 3A (Rattus norvegicus) (UniProt P35563); assay: Ability to block serotonin (30 uM)-evoked responses at rat 5HT3-alpha receptor expressed in xenopus oocytes; format: functional, cell-based; conditions: Oocyte
T4 sequence (whole entry): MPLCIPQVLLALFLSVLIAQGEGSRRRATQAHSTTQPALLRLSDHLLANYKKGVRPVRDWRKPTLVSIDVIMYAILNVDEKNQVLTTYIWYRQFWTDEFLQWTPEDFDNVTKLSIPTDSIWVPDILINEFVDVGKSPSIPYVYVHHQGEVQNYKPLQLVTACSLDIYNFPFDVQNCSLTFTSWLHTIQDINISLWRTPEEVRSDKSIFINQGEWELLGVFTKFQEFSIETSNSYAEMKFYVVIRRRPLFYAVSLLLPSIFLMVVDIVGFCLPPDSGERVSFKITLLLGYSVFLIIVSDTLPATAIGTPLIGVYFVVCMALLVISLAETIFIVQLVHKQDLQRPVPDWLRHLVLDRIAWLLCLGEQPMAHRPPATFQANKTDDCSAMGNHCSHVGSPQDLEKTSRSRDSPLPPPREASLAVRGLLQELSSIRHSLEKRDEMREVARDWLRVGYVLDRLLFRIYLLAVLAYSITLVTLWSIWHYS

[7] = target: T1, Neuronal acetylcholine receptor; alpha3/beta4; assay: Activation responses to that evoked by ACh at human alpha3-beta4 receptor expressed in xenopus oocytes at 1 mM; format: cell-based; conditions: Oocyte
[8] = target: T1, Neuronal acetylcholine receptor; alpha3/beta4; assay: Antagonism of ACh-evoked responses at human Nicotinic acetylcholine receptor alpha3-beta4 expressed in xenopus oocytes; format: functional, cell-based, Oocyte
[9] = target: T5, Neuronal acetylcholine receptor subunit alpha-7 (Rattus norvegicus, UniProt Q05941); assay: Activation responses to that evoked by ACh at human Nicotinic acetylcholine receptor alpha-7 expressed in xenopus oocytes; format: cell-based, Oocyte
T5 sequence (Q05941 whole entry): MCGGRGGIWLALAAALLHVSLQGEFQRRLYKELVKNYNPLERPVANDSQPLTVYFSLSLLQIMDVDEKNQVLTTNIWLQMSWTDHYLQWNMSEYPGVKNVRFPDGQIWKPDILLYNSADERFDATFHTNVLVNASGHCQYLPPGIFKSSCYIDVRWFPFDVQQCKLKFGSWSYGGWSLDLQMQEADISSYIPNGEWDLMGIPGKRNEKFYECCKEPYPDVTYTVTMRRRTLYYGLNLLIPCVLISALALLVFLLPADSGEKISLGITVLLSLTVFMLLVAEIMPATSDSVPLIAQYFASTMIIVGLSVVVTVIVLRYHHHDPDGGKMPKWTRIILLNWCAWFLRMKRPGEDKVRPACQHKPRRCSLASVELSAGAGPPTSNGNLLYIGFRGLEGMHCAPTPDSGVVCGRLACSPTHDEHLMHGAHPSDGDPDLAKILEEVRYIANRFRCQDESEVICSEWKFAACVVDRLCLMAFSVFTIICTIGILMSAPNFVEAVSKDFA

[10] = test system: Oocyte; assay: Activation responses to that evoked by ACh at human Nicotinic acetylcholine receptor alpha-3-beta-2-alpha-5 expressed in xenopus oocytes at 100 uM; format: cell-based
[11] = target: T2, Neuronal acetylcholine receptor; alpha3/beta2 (Homo sapiens); assay: Activation responses to that evoked by Nicotinic acetylcholine receptor alpha3-beta2 expressed in xenopus oocytes at 1 mM; format: cell-based; conditions: Oocyte
[12] = target: T2, Neuronal acetylcholine receptor; alpha3/beta2 (Homo sapiens); assay: Activation responses to that evoked by Nicotinic acetylcholine receptor alpha3-beta2 expressed in xenopus oocytes at 300 uM; format: cell-based; conditions: Oocyte
[13] = target: T3, Neuronal acetylcholine receptor; alpha4/beta2; assay: Activation responses to that evoked by ACh at human Nicotinic acetylcholine receptor alpha4-beta2; format: protein-complex assay
[14] = target: T3, Neuronal acetylcholine receptor; alpha4/beta2; assay: Activation responses to that evoked by ACh at human Nicotinic acetylcholine receptor alpha4-beta2 expressed in xenopus oocytes at 300 uM; format: cell-based; conditions: Oocyte
[15] = target: T4, 5-hydroxytryptamine receptor 3A (Rattus norvegicus); assay: Effect on rat 5-hydroxytryptamine 3a receptor expressed in xenopus oocytes at concentration up to 100 uM; format: functional, cell-based; conditions: Oocyte
[16] = target: T5, Neuronal acetylcholine receptor subunit alpha-7; assay: Inhibition of the response to ACh when coapplied with Nicotinic acetylcholine receptor alpha7

T1 sequence (P30926 whole entry): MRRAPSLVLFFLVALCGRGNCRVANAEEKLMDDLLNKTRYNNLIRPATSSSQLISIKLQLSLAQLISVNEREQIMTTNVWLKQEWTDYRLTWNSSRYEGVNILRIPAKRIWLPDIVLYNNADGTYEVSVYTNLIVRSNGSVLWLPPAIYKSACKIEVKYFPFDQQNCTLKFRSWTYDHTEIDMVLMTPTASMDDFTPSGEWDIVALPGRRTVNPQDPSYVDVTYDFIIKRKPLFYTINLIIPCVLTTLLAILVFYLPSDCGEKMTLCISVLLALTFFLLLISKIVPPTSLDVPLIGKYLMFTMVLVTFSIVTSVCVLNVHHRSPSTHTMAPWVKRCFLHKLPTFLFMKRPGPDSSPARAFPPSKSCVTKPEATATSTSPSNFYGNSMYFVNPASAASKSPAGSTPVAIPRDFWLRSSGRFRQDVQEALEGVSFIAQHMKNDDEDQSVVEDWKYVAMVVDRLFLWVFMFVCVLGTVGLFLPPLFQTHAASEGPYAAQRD
T1 sequence (P32297 whole entry): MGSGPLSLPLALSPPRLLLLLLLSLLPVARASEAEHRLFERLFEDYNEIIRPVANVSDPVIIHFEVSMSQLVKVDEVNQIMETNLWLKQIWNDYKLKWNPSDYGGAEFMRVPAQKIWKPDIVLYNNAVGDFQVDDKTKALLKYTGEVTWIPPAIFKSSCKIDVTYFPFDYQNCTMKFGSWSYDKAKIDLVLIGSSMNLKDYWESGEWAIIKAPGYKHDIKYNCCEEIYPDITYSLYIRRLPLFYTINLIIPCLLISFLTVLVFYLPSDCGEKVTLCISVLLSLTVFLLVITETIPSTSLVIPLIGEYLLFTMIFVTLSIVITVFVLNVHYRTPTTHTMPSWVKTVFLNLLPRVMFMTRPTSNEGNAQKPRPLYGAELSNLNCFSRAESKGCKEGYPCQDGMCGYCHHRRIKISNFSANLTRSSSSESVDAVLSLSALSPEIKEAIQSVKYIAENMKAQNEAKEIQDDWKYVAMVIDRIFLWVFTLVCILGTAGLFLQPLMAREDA

| Effect [1] | Effect [2] | Effect [3] | Effect [4] | IC50 [5] | IC50 [16] | Effect ([1]; filed as antagonist) | Effect ([4]; filed as antagonist) | SMILES | Effect [6] | Activation [7] | IC50 [8] | EC50 [9] | Activation [10] | Activation [11] | Activation [12] | Activation [13] | Activation [14] | Effect [15] |
| --- | --- | --- | --- | --- | --- | --- | --- | --- | --- | --- | --- | --- | --- | --- | --- | --- | --- | --- |
| inactive | inactive | inactive | inactive | 170 µM |  |  |  | CN1[C@@H]2CC[C@H]1C[C@@H](OC(=O)c1c[nH]c3ccccc13)C2 [TROPISETRON] |  |  |  |  |  |  |  |  |  |  |
|  | inactive | inactive |  | 66 µM | 25 µM | Antagonist | Antagonist | Cc1nccn1CC1CCc2c(c3ccccc3n2C)C1=O (stereo not drawn) [ONDANSETRON] |  |  | 27 µM |  |  |  |  |  |  |  |

| SMILES | Effect [1] | Effect [2] | Effect [3] | Effect [4] | IC50 [5] | IC50 [16] | Effect ([1]; filed as antagonist) | Effect ([4]; filed as antagonist) | Effect [6] | Activation [7] | IC50 [8] | EC50 [9] | Activation [10] | Activation [11] | Activation [12] | Activation [13] | Activation [14] | Effect [15] |
| --- | --- | --- | --- | --- | --- | --- | --- | --- | --- | --- | --- | --- | --- | --- | --- | --- | --- | --- |
| O=C1NC[C@@]2(CN3CCC2CC3)O1 |  |  |  |  | > 2000 µM |  |  |  | inactive | inactive | > 1000 µM | 380 nM | 3% | 2% | 1% | 2% | 1% | inactive |
